In patent EP4692071A1, “PHOTOCHROMIC COMPOUND, NAPHTHOL DERIVATIVE, CURABLE COMPOSITION, OPTICAL ARTICLE, LENS, AND EYEGLASS” (TOKUYAMA CORPORATION, priority 2023, dated 2024):
Several values for one entry are separate records, joined by “and”; a condition that tells them apart may be missing. Equal entries are not always repeated.

Columns and labels:
Format in all cases: physicochemical
[1] = Maximum absorption wavelength (λmax) after color development, spectrophotometer MCPD3000; details: for Maximum absorption wavelength: after color development
Protocol: (§1) • [1] Maximum Absorption Wavelength (λmax): The maximum absorption wavelength after color development, measured using a spectrophotometer (instantaneous multichannel photodetector MCPD3000) manufactured by Otsuka Electronics Co., Ltd. was used as an indicator for the color tone during the color development. • [2] 23°C Color Optical Density (A23): A difference between an absorbancy measured after light irradiation at 23°C for 240 seconds {ε(240)} and an absorbancy without light irradiation ε(0) at the maximum absorption wavelength was used as an indicator for the color optical density. […] 35°C Color Optical Density (A35): A difference between an absorbancy measured after light irradiation at 35°C for 240 seconds {ε(240)} and an absorbancy without light irradiation ε(0) at the first and second absorption wavelengths was used as an indicator for the color optical density. […] 23°C color fading half-life [τ1/2 (sec.)]: A time required for the absorbancy of the sample at the maximum absorption wavelength to decrease to 1/2 of {ε(240)-ε(0)} when the light irradiation is terminated after the light irradiation at 23°C for 240 seconds, was used as an indicator for the color fading speed. The shorter this time, the higher the color fading speed. • [6] Residual rate (A90/A0×100): The obtained photochromic plastic lens was subjected to accelerated deterioration using a xenon weather meter X25 manufactured by Suga Test Instruments Co., Ltd. for 90 hours. Subsequently, the color optical density was evaluated before and after the test, then a color optical density before the test (A0) and a color optical density after the test (A90) were measured, and a ratio (A90/A0) was defined as a residual rate. The residual rate was used as an indicator for a color developing durability. The higher the residual rate, the higher the color developing durability.

[2] = 23°C color optical density (A23): absorbancy difference ε(240)-ε(0) after 240 s light irradiation at 23°C; details: 240 s irradiation
Protocol: as §1

[3] = 35°C color optical density (A35): absorbancy difference ε(240)-ε(0) after 240 s light irradiation at 35°C; details: 240 s irradiation
Protocol: as §1

[4] = High-temperature color development rate (A35/A23×100), temperature dependency
Protocol: as §1

[5] = Residual rate (A90/A0×100) after 90 h accelerated deterioration in xenon weather meter X25, color developing durability; details: for Residual rate (%): xenon weather meter 90 hours; for Residual rate: after 90 h accelerated deterioration
Protocol: as §1

[6] = cured product by kneading method, 1 mm
[7] = photochromic laminate by coating method
[8] = photochromic cured product, thickness 1 mm (kneading method)
[9] = photochromic laminate prepared by coating method

COc1ccc(C2(c3ccc(OC)cc3)C=Cc3c4c(c5cc(N(C)c6ccccc6)c(OC)cc5c3O2)-c2ccccc2C4(C)C)cc1 [Example 1 Formula (28)]
Maximum absorption wavelength (nm) ([1]; binder sheet (binder method), urethaneurea resin photochromic layer between polycarbonate sheets, 0.25 mmol per 100 parts by mass resin): 501 nm | Maximum absorption wavelength (nm) ([1]; photochromic cured product by kneading method, 1 mm thick thiourethane, 0.106 mmol per 100 g monomers): 505 nm | Maximum absorption wavelength (nm) ([1]; photochromic laminate by coating method, 40 µm photochromic layer on thiourethane lens, 0.25 mmol compound per 100 g monomers): 501 nm | A23 (-) ([2]; binder sheet (binder method)): 1.17 - | A23 (-) [2, 6]: 1.19 - | A23 (-) ([2]; photochromic laminate by coating method, at the maximum absorption wavelength): 1.15 - | A35 (-) ([3]; binder sheet (binder method)): 0.80 - | A35 (-) [3, 6]: 0.83 - | A35 (-) [3, 7]: 0.79 - | A35/A23 *100 (%) ([4]; binder sheet (binder method)): 69% | A35/A23 *100 (%) [4, 6]: 70% | A35/A23 *100 (%) [4, 7]: 69% | Residual rate (%) ([5]; binder sheet (binder method)): 95% | Residual rate (%) [5, 6]: 89% | Residual rate (%) [5, 7]: 83%

COc1ccc(C2(c3ccc(OC)cc3)C=Cc3c4c(c5cc(N6CCc7ccccc76)c(OC)cc5c3O2)-c2ccccc2C4(C)C)cc1 [Formula (28A)]
Maximum absorption wavelength ([1]; binder sheet (binder method)): 532 nm | Maximum absorption wavelength [1, 8]: 536 nm | Maximum absorption wavelength [1, 9]: 532 nm | A35/A23 *100 ([4]; binder sheet (binder method)): 74% | A35/A23 *100 [4, 8]: 75% | A35/A23 *100 [4, 9]: 74% | Residual rate ([5]; binder sheet (binder method)): 88% | Residual rate [5, 8]: 79% | Residual rate [5, 9]: 74%

CCCOc1ccc(C2(c3ccc(OCCC)cc3)C=Cc3c4c(c5cc(N6CCc7ccccc76)c(OC)cc5c3O2)-c2ccc(-c3ccc(C)cc3)cc2C42CCCCCCC2)cc1 [Formula (35A)]
Maximum absorption wavelength ([1]; binder sheet (binder method)): 531 nm | Maximum absorption wavelength [1, 8]: 535 nm | Maximum absorption wavelength [1, 9]: 531 nm | A35/A23 *100 ([4]; binder sheet (binder method)): 78% | A35/A23 *100 [4, 8]: 80% | A35/A23 *100 [4, 9]: 78% | Residual rate ([5]; binder sheet (binder method)): 90% | Residual rate [5, 8]: 80% | Residual rate [5, 9]: 75%

COCCCC1(CCCOC)c2ccccc2-c2c1c1c(c3cc(OC)c(N4CC(C)c5ccccc54)cc23)OC(c2ccc(OC)cc2)(c2ccc(OC)cc2)C=C1 (stereo not drawn) [Formula (39A)]
Maximum absorption wavelength ([1]; binder sheet (binder method)): 533 nm | Maximum absorption wavelength [1, 8]: 537 nm | Maximum absorption wavelength [1, 9]: 533 nm | A35/A23 *100 ([4]; binder sheet (binder method)): 75% | A35/A23 *100 [4, 8]: 76% | A35/A23 *100 [4, 9]: 75% | Residual rate ([5]; binder sheet (binder method)): 85% | Residual rate [5, 8]: 76% | Residual rate [5, 9]: 71%

CCC1(CC)c2cc(C)ccc2-c2c1c1c(c3cc(C)c(N4CCc5ccccc54)cc23)OC(c2ccc(C)cc2)(c2ccc(OC)cc2)C=C1 (stereo not drawn) [Formula (42A)]
Maximum absorption wavelength ([1]; binder sheet (binder method)): 535 nm | Maximum absorption wavelength [1, 8]: 539 nm | Maximum absorption wavelength [1, 9]: 535 nm | A35/A23 *100 ([4]; binder sheet (binder method)): 75% | A35/A23 *100 [4, 8]: 76% | A35/A23 *100 [4, 9]: 75% | Residual rate ([5]; binder sheet (binder method)): 85% | Residual rate [5, 8]: 75% | Residual rate [5, 9]: 70%

COc1ccc(C2(c3ccc(N4CCOCC4)cc3)C=Cc3c4c(c5cc(N6CCc7ccccc76)c(C)cc5c3O2)-c2ccc(OC)cc2C4(CCCC(F)(F)F)CCCC(F)(F)F)cc1 (stereo not drawn) [Formula (45A)]
Maximum absorption wavelength [1, 9]: 489 nm and 596 nm | A35/A23 *100 [4, 9]: 67% | Residual rate [5, 9]: 65%

CCCCCCOc1ccc(C2(c3ccc(OCCCCCC)cc3)C=Cc3c4c(c5cc(N6CCc7cc(OC)ccc76)c(OC)cc5c3O2)-c2ccc(-c3ccc(C(F)(F)F)cc3)cc2C42CC(C)(C)CC(C)(C)C2)cc1 [Formula (48A)]
Maximum absorption wavelength ([1]; binder sheet (binder method)): 539 nm | Maximum absorption wavelength [1, 9]: 539 nm | A35/A23 *100 ([4]; binder sheet (binder method)): 62% | A35/A23 *100 [4, 9]: 62% | Residual rate ([5]; binder sheet (binder method)): 84% | Residual rate [5, 9]: 69%

COCCOCCOCCC1(CCOCCOCCOC)c2ccccc2-c2c1c1c(c3cc(OC)c(N4CCc5cc(F)ccc54)cc23)OC(c2ccc(OC)cc2)(c2ccc(OC)cc2)C=C1 [Formula (50A)]
Maximum absorption wavelength ([1]; binder sheet (binder method)): 522 nm | Maximum absorption wavelength [1, 8]: 526 nm | Maximum absorption wavelength [1, 9]: 522 nm | A35/A23 *100 ([4]; binder sheet (binder method)): 70% | A35/A23 *100 [4, 8]: 71% | A35/A23 *100 [4, 9]: 70% | Residual rate ([5]; binder sheet (binder method)): 84% | Residual rate [5, 8]: 76% | Residual rate [5, 9]: 70%

COc1ccc(C2(c3ccc(OC)cc3)C=Cc3c4c(c5cc(N6CCc7cc(C)ccc76)c(OC)cc5c3O2)-c2ccccc2C4(C)C)cc1 [Formula (52A)]
Maximum absorption wavelength ([1]; binder sheet (binder method)): 535 nm | Maximum absorption wavelength [1, 8]: 539 nm | Maximum absorption wavelength [1, 9]: 535 nm | A35/A23 *100 ([4]; binder sheet (binder method)): 75% | A35/A23 *100 [4, 8]: 76% | A35/A23 *100 [4, 9]: 75% | Residual rate ([5]; binder sheet (binder method)): 92% | Residual rate [5, 8]: 82% | Residual rate [5, 9]: 76%

CCCOc1ccc(C2(c3ccc(OCCC)cc3)C=Cc3c4c(c5cc(N6CCc7cc(C(F)(F)F)ccc76)c(OC)cc5c3O2)-c2ccccc2C4(CCC)CCC)cc1 [Formula (54A)]
Maximum absorption wavelength [1, 9]: 592 nm and 486 nm | A35/A23 *100 [4, 9]: 66% and 67% | Residual rate [5, 9]: 69%

COc1ccc(C2(c3ccc(N(c4ccccc4)c4ccccc4)cc3)C=Cc3c4c(c5cc(N6CCc7ccccc76)c(OC)cc5c3O2)-c2ccccc2C42CCC3(CCCCC3)CC2)cc1 (stereo not drawn) [Formula (57A)]
Maximum absorption wavelength ([1]; binder sheet (binder method)): 548 nm | Maximum absorption wavelength [1, 9]: 548 nm | A35/A23 *100 ([4]; binder sheet (binder method)): 70% | A35/A23 *100 [4, 9]: 70% | Residual rate ([5]; binder sheet (binder method)): 80% | Residual rate [5, 9]: 65%

CCC1(CC)CCC2(CC1)c1cc(-c3ccccc3)ccc1-c1c2c2c(c3cc(OC)c(N4CCc5ccccc54)cc13)OC(c1ccc(C)cc1)(c1ccc(N(C)c3ccccc3)cc1)C=C2 (stereo not drawn) [Formula (60A)]
Maximum absorption wavelength [1, 9]: 535 nm and 595 nm | A35/A23 *100 [4, 9]: 71% | Residual rate [5, 9]: 69%

COc1ccc(C2(c3ccc(OC)c(OC)c3)C=Cc3c4c(c5cc(N6CCc7ccccc76)c(OC)cc5c3O2)-c2ccccc2C4(CCC(F)(F)F)CCC(F)(F)F)cc1 (stereo not drawn) [Formula (67A)]
Maximum absorption wavelength ([1]; binder sheet (binder method)): 527 nm | Maximum absorption wavelength [1, 8]: 531 nm | Maximum absorption wavelength [1, 9]: 527 nm | A35/A23 *100 ([4]; binder sheet (binder method)): 66% | A35/A23 *100 [4, 8]: 67% | A35/A23 *100 [4, 9]: 66% | Residual rate ([5]; binder sheet (binder method)): 83% | Residual rate [5, 8]: 75% | Residual rate [5, 9]: 73%

CCCC1(C)c2cc(Oc3ccccc3)ccc2-c2c1c1c(c3cc(OC)c(N4CCc5ccccc54)cc23)OC(c2ccc(OC)cc2)(c2ccc3c(c2)CCO3)C=C1 (stereo not drawn) [Formula (70A)]
Maximum absorption wavelength ([1]; binder sheet (binder method)): 535 nm | Maximum absorption wavelength [1, 8]: 540 nm | Maximum absorption wavelength [1, 9]: 536 nm | A35/A23 *100 ([4]; binder sheet (binder method)): 77% | A35/A23 *100 [4, 8]: 78% | A35/A23 *100 [4, 9]: 77% | Residual rate ([5]; binder sheet (binder method)): 82% | Residual rate [5, 8]: 77% | Residual rate [5, 9]: 71%

CCC1(CC)CCC2(CC1)c1cc(OC(F)(F)F)ccc1-c1c2c2c(c3cc(OC)c(N4CCc5ccccc54)cc13)OC(c1ccc(OC)cc1)(c1ccc(OCCCO[Si](C)(C)CC[Si](O[Si](C)(C)C)(O[Si](C)(C)C)O[Si](C)(C)C)cc1)C=C2 (stereo not drawn) [Formula (74A)]
Maximum absorption wavelength ([1]; binder sheet (binder method)): 522 nm | Maximum absorption wavelength [1, 8]: 526 nm | Maximum absorption wavelength [1, 9]: 522 nm | A35/A23 *100 ([4]; binder sheet (binder method)): 64% | A35/A23 *100 [4, 8]: 65% | A35/A23 *100 [4, 9]: 64% | Residual rate ([5]; binder sheet (binder method)): 83% | Residual rate [5, 8]: 77% | Residual rate [5, 9]: 72%

CCCOc1ccc(C2(c3ccc(OC)cc3)C=Cc3c4c(c5cc(N6CCc7ccccc76)c(C)cc5c3O2)-c2ccc(-c3ccc(F)c(F)c3F)cc2C4(CCCCOC)CCCCOC)cc1F (stereo not drawn) [Formula (78A)]
Maximum absorption wavelength ([1]; binder sheet (binder method)): 523 nm | Maximum absorption wavelength [1, 9]: 524 nm | A35/A23 *100 ([4]; binder sheet (binder method)): 68% | A35/A23 *100 [4, 9]: 68% | Residual rate ([5]; binder sheet (binder method)): 82% | Residual rate [5, 9]: 64%

COc1ccc(C2(c3ccc(OC)cc3)C=Cc3c4c(c5cc(N6CCc7ccccc76)c(-c6ccc(OC)cc6OC)cc5c3O2)-c2ccccc2C4(C)C)cc1 [Formula (I), reference compound]
Maximum absorption wavelength ([1]; binder sheet (binder method)): 522 nm | Maximum absorption wavelength [1, 8]: 526 nm | Maximum absorption wavelength [1, 9]: 522 nm | A35/A23 *100 ([4]; binder sheet (binder method)): 72% | A35/A23 *100 [4, 8]: 73% | A35/A23 *100 [4, 9]: 71% | Residual rate ([5]; binder sheet (binder method)): 84% | Residual rate [5, 8]: 74% | Residual rate [5, 9]: 71%
